In ChEMBL document CHEMBL5335866, “Structure-Based Optimization of Selective and Brain Penetrant CK1δ Inhibitors for the Treatment of Circadian Disruptions” (ACS Med Chem Lett, 2024):
Converted amounts (≈) assume the structure as drawn.

What was measured:
[1] = target: T1, TGF-beta receptor type-1 (Homo sapiens) (UniProt P36897); assay: Inhibition of TGFBR1 (unknown origin) at 1 uM by radiometric assay relative to control
T1 sequence (whole entry): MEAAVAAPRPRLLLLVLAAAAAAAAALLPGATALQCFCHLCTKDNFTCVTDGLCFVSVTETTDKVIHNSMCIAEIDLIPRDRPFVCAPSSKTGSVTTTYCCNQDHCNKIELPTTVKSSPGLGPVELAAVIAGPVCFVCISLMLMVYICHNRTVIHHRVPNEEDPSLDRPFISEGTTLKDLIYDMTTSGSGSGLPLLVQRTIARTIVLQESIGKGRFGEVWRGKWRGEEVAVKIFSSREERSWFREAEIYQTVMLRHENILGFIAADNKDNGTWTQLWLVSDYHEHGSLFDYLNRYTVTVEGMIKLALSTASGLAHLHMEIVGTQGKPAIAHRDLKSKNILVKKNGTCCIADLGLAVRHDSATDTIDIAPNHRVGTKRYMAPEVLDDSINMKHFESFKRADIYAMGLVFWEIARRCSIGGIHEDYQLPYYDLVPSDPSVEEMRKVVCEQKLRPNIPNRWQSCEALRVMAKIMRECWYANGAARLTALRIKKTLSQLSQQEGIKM

[2] = target: T2, Dual specificity mitogen-activated protein kinase kinase 3 (Homo sapiens) (UniProt P46734); assay: Inhibition of MKK3 (unknown origin) at 1 uM by radiometric assay relative to control
T2 sequence (whole entry): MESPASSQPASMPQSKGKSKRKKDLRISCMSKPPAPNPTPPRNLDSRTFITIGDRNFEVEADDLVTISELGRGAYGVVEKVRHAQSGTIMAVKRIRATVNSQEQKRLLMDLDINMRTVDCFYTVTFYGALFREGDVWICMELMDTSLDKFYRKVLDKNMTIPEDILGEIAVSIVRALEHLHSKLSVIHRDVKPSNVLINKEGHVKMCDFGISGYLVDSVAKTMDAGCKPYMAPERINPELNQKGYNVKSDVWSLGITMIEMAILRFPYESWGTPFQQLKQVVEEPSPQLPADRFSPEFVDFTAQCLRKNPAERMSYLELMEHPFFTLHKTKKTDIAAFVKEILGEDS

[3] = Intrinsic clearance in human liver microsomes at 1 uM preincubated for 5 mins followed by NADPH addition measured for 60 mins by LC-MS/MS analysis; type: ADME, Microsome; details: time 65 min, read-out: CLH
[4] = target: Mitogen-activated protein kinase 14 (Homo sapiens, UniProt Q16539); assay: Inhibition of p38 alpha (unknown origin)
Mitogen-activated protein kinase 14, sequence (Q16539 whole entry): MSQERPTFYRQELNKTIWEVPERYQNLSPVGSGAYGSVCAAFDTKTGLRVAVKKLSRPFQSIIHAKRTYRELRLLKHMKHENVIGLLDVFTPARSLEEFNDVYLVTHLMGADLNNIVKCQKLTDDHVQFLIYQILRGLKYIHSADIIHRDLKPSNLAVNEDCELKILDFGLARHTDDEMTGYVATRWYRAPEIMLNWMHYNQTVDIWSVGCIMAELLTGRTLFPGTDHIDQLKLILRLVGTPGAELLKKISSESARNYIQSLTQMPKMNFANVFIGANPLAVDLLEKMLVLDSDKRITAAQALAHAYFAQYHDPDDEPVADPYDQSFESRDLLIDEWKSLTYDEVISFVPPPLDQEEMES

[5] = Intrinsic clearance in rat liver microsomes at 1 uM preincubated for 5 mins followed by NADPH addition measured for 60 mins by LC-MS/MS analysis; type: ADME, Microsome; details: time 65 min, read-out: CLH
[6] = target: Receptor-interacting serine/threonine-protein kinase 2 (Homo sapiens) (UniProt O43353); assay: Inhibition of RIPK2 (unknown origin) at 1 uM by radiometric assay relative to control
Receptor-interacting serine/threonine-protein kinase 2 (Homo sapiens), sequence (O43353 whole entry): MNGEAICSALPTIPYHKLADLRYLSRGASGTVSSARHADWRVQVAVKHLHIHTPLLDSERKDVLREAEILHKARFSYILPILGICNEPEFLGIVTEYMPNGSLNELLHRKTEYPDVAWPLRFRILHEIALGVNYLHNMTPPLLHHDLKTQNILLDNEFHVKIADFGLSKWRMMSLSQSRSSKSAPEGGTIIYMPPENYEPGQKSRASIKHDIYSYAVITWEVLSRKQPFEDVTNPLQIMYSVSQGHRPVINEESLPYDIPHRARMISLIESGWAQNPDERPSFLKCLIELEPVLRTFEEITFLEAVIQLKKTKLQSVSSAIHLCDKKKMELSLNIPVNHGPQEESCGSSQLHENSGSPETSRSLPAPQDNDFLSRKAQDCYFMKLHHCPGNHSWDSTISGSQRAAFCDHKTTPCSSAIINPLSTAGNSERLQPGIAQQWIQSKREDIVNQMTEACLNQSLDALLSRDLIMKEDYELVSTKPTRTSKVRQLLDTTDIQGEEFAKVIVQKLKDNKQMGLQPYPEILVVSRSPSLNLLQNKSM

[7] = target: T3, Serine/threonine-protein kinase NLK (Homo sapiens) (UniProt Q9UBE8); assay: Inhibition of NLK (unknown origin) at 1 uM by radiometric assay relative to control
T3 sequence (whole entry): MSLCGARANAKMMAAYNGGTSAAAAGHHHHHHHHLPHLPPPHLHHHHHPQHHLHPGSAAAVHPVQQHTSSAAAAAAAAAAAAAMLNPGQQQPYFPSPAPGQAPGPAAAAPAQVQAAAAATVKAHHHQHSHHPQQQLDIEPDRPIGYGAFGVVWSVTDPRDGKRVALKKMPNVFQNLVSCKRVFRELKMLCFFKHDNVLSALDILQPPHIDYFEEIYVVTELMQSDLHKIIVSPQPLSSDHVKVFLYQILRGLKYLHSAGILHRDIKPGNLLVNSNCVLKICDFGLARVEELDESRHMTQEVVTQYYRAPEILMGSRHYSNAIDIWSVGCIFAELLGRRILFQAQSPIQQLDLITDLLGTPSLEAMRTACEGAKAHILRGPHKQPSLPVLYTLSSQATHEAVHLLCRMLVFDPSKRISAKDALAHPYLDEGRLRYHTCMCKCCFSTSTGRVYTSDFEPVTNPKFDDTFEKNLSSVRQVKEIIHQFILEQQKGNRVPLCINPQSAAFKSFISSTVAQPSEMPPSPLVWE

[8] = target: TRAF2 and NCK-interacting protein kinase (Homo sapiens, UniProt Q9UKE5); assay: Inhibition of TNIK (unknown origin) at 1 uM by radiometric assay relative to control
TRAF2 and NCK-interacting protein kinase, sequence (Q9UKE5 whole entry, looked up): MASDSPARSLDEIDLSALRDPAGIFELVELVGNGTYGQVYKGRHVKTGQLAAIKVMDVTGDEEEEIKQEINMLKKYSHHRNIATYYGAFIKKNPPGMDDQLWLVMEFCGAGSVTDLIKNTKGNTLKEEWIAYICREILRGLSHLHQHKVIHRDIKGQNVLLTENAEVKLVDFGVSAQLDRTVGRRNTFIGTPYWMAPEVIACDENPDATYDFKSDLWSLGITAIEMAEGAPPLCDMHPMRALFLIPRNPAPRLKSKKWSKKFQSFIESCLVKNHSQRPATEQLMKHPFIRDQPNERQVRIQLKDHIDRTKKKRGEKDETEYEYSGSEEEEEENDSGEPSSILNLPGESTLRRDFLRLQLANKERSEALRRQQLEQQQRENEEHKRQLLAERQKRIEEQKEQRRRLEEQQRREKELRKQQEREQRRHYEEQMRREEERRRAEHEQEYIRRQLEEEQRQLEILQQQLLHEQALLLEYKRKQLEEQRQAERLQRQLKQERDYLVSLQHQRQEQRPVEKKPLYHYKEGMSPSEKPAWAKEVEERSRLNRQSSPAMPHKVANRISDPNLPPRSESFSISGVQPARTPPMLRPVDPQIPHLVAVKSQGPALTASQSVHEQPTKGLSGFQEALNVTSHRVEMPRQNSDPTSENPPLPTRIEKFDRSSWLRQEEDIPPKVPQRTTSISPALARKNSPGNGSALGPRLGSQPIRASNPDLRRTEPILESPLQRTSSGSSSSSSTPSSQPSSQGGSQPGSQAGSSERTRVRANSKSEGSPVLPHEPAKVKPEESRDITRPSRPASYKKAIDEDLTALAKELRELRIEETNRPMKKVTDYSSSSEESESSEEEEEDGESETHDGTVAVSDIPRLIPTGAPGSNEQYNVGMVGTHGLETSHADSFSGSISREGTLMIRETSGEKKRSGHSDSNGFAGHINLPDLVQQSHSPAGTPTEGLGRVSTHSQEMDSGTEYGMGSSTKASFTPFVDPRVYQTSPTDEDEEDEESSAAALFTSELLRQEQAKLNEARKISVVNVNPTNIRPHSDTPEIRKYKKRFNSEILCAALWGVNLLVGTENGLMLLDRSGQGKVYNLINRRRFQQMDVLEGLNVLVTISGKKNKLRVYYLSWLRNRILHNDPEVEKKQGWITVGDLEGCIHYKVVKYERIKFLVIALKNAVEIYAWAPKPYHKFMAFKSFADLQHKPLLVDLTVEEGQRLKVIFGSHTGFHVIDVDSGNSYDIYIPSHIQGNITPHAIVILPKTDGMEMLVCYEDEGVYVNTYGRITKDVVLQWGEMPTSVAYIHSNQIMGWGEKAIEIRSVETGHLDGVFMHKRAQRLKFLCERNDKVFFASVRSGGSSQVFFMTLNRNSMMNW

[9] = target: Citron Rho-interacting kinase (Homo sapiens) (UniProt O14578); assay: Inhibition of CRIK (unknown origin) at 1 uM by radiometric assay relative to control
[10] = target: Mitogen-activated protein kinase kinase kinase 20 (Homo sapiens) (UniProt Q9NYL2); assay: Inhibition of ZAK (unknown origin) at 1 uM by radiometric assay relative to control
Mitogen-activated protein kinase kinase kinase 20 (Homo sapiens), sequence (Q9NYL2 2-800 limits assumed): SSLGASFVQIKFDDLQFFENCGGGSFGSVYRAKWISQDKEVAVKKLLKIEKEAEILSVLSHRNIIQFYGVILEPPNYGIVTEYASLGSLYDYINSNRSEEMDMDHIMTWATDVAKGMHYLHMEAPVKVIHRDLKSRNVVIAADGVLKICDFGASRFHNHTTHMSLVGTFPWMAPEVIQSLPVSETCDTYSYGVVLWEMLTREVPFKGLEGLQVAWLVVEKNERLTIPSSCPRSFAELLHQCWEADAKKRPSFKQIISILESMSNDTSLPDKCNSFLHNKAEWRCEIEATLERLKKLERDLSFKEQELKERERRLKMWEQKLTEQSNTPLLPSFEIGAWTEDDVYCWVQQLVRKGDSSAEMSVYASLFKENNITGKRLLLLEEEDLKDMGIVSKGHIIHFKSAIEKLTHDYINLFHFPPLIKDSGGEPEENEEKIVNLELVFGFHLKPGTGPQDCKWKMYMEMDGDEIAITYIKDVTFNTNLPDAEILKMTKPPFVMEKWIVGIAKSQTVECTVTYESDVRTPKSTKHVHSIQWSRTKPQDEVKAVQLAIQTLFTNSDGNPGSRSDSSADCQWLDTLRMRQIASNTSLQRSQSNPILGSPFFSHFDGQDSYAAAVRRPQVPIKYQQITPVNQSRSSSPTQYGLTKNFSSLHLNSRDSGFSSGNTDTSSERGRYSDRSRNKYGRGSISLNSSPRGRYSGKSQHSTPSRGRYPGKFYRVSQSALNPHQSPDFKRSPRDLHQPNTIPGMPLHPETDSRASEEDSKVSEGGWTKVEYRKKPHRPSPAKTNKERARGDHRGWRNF

[11] = target: Epithelial discoidin domain-containing receptor 1 (Homo sapiens) (UniProt Q08345); assay: Inhibition of DDR1 (unknown origin) at 1 uM by radiometric assay relative to control
Epithelial discoidin domain-containing receptor 1 (Homo sapiens), sequence (Q08345 whole entry, the tested form may be a part): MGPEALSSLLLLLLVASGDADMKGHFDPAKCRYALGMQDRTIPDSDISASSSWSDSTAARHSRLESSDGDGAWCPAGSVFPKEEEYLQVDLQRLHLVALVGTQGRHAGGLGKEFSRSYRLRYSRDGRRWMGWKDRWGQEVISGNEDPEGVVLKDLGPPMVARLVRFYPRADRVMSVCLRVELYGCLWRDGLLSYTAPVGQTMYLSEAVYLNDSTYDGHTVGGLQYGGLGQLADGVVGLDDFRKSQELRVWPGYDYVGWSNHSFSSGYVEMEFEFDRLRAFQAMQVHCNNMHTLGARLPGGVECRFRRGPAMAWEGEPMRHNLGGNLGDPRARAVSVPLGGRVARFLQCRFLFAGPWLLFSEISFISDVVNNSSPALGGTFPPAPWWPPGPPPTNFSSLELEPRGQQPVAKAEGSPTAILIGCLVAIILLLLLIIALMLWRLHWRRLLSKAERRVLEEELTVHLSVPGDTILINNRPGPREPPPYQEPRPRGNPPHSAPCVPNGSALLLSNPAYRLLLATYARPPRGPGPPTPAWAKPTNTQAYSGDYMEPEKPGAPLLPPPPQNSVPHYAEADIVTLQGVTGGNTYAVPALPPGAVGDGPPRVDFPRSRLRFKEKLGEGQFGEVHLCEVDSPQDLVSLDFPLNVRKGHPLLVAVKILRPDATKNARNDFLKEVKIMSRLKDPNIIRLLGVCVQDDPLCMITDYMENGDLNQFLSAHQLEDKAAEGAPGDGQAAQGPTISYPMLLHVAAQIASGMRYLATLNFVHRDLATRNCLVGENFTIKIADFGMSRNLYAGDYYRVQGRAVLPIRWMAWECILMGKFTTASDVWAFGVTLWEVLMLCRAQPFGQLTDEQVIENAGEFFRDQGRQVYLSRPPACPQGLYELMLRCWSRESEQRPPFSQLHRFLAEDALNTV

[12] = Solubility of compound at pH 7 measured for 2 to 5 days by HPLC analysis; type: physicochemical; details: buffer, time 2-5 day
[13] = Apparent permeability across apical to basal side in MDCK cells expressing MDR1 at 5 uM incubated for 60 mins by LC/MS/MS analysis; type: ADME, cell-based, Canis lupus familiaris, MDCK1; details: dog
[14] = Solubility of compound at pH 2 measured for 2 to 5 days by HPLC analysis; type: physicochemical; details: buffer, time 2-5 day
[15] = target: T4, Casein kinase I isoform delta (Homo sapiens, UniProt P48730); assay: Inhibition of N-terminal GST-tagged recombinant human CK1 delta expressed in Escherichia coli BL21 cells using PLSRTL-pS-VA-pS-LPGL as substrate measured after 60 mins in presence of ATP by ADP-Glo assay
T4 sequence (P48730 whole entry, canonical isoform): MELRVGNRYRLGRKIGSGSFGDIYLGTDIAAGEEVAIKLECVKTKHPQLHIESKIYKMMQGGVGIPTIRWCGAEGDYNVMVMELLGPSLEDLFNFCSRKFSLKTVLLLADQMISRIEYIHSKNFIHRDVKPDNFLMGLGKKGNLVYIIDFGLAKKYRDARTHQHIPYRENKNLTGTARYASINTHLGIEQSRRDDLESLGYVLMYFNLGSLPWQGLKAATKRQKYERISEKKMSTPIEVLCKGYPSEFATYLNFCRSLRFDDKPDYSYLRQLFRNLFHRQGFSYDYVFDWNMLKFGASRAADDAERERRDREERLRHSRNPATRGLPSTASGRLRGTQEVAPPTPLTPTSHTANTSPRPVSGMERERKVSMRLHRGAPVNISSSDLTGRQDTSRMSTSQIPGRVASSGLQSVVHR

[16] = target: Mitogen-activated protein kinase 11 (Homo sapiens, UniProt Q15759); assay: Inhibition of p38 beta (unknown origin)
Mitogen-activated protein kinase 11, sequence (Q15759 whole entry): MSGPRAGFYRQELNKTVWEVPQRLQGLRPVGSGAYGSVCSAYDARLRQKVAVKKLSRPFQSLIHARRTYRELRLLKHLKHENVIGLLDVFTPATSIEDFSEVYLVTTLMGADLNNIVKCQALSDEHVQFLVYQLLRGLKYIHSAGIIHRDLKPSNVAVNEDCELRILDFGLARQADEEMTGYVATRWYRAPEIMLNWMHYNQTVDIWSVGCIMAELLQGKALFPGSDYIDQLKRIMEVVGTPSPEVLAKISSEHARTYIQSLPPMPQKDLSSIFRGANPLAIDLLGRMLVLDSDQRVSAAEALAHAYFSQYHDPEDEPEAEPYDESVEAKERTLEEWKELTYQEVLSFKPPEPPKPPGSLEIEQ

MDR1 = assay: Efflux ratio of apparent permeability across basal to apical side over apical to basal side in MDCK cells expressing MDR1 at 5 uM incubated for 60 mins by LC/MS/MS analysis; type: ADME, cell-based, Canis lupus familiaris, MDCK1; details: dog
[17] = Cmax in Sprague-Dawley rat at 5 mg/kg, po measured for 24 hrs by LC-MS/MS analysis; type: ADME, organism-based; set-up: dose 5 mg/kg, time 24 hrs, route po; details: in vivo
[18] = AUC (infinity) in Sprague-Dawley rat at 5 mg/kg, po measured for 24 hrs by LC-MS/MS analysis; type: ADME, organism-based; set-up: time 24 hrs, dose 5 mg/kg, route po; details: in vivo
[19] = Half life in Sprague-Dawley rat at 5 mg/kg, po measured for 24 hrs by LC-MS/MS analysis; type: ADME, organism-based; details: in vivo
[20] = Volume of distribution at steady state in Sprague-Dawley rat at 1 mg/kg, iv measured for 24 hrs by LC-MS/MS analysis; type: ADME, organism-based; details: in vivo, read-out: Vdss
[21] = Clearance in Sprague-Dawley rat at 1 mg/kg, iv measured for 24 hrs by LC-MS/MS analysis; type: ADME, organism-based; details: in vivo
[22] = Oral bioavailability in Sprague-Dawley rat at 5 mg/kg measured for 24 hrs by LC-MS/MS analysis; type: ADME, organism-based; details: in vivo
[23] = target: T4, Casein kinase I isoform delta; assay: Displacement of kinase tracer 8 from NanoLuc-tagged CK1 delta (unknown origin) transfected in CHO cells by BRET assay; type: cell-based

## CC1(C)Cn2nc(-c3ccc(F)cn3)c(-c3ccnc4[nH]ccc34)c2CO1
[1]
  inhibition: 49%
[2]
  inhibition: 40%
[3]
  microsomal CLint at 1 µM: 15.1 µL/min/mg
[4]
  IC50: 2100 nM
[5]
  microsomal CLint at 1 µM: 42.9 µL/min/mg
[6]
  inhibition: 39%
[7]
  inhibition: 16%
[8]
  inhibition: 84%
[9]
  inhibition: 15%
[10]
  inhibition: 20%
[11]
  inhibition: 25%

## Cn1cc(-c2cc(N)nc3[nH]ccc23)c(-c2ccc(F)cn2)n1
[1]
  inhibition: 8%
[2]
  inhibition: 29%
[4]
  IC50: > 10000 nM
[6]
  inhibition: 3%
[7]
  inhibition: 0%
[8]
  inhibition: 39%
[9]
  inhibition: 0%
[10]
  inhibition: 18%
[11]
  inhibition: 8%

## Cn1cc(-c2c(C#N)cnc3[nH]ccc23)c(-c2ccc(F)cn2)n1
[1]
  inhibition: 17%
[2]
  inhibition: 11%
[4]
  IC50: 6200 nM
[6]
  inhibition: 0%
[7]
  inhibition: 17%
[8]
  inhibition: 88%
[9]
  inhibition: 9%
[10]
  inhibition: 40%
[11]
  inhibition: 20%

## Cn1cc(-c2ccnc3[nH]ccc23)c(-c2ccc(F)cc2)n1
[12]
  solubility: < 4 µM
[3]
  microsomal CLint at 1 µM: 45 µL/min/mg
[4]
  IC50: 140 nM
[5]
  microsomal CLint at 1 µM: 170 µL/min/mg
[13]
  Papp A→B at 1 h, 5 µM: 25.9 ×10⁻⁶ cm/s
[14]
  solubility: > 400 µM
[15]
  IC50: 2.2 nM
[16]
  IC50: 250 nM
MDR1
  efflux ratio at 1 h, 5 µM: 1.02

## Cn1cc(-c2ccnc3[nH]ncc23)c(-c2ccc(F)cc2)n1
[17]
  Cmax: 2400 nM
[12]
  solubility: 8.7 µM (≈ 2.55 µg/mL)
[3]
  microsomal CLint at 1 µM: 9.4 µL/min/mg
[18]
  AUC(0-inf): 2580 ng·h/mL
[4]
  IC50: 250 nM
[19]
  half-life: 2 h
[20]
  Vd: 1.6 L/kg
[5]
  microsomal CLint at 1 µM: 42.2 µL/min/mg
[21]
  clearance: 23 mL/min/kg
[22]
  bioavailability: 70%
[13]
  Papp A→B at 1 h, 5 µM: 27.3 ×10⁻⁶ cm/s
[14]
  solubility: 112 µM (≈ 32.9 µg/mL)
[15]
  IC50: 1.4 nM
[16]
  IC50: 780 nM
[23]
  IC50: 36 nM
MDR1
  efflux ratio at 1 h, 5 µM: 3

## Fc1ccc(-c2nn3c(c2-c2ccnc4[nH]ncc24)CCC(F)(F)C3)nc1
[23]
  IC50: 300 nM

## Cn1cc(-c2ccnc3[nH]ccc23)c(-c2ccc(F)cn2)n1
[1]
  inhibition: 98%
[17]
  Cmax: 1600 nM
[2]
  inhibition: 74%
[12]
  solubility: > 400 µM
[3]
  microsomal CLint at 1 µM: 7.7 µL/min/mg
[18]
  AUC(0-inf): 755 ng·h/mL
[4]
  IC50: 930 nM
[19]
  half-life: 1.3 h
[20]
  Vd: 0.6 L/kg
[5]
  microsomal CLint at 1 µM: 53.5 µL/min/mg
[21]
  clearance: 35 mL/min/kg
[22]
  bioavailability: 32%
[6]
  inhibition: 81%
[7]
  inhibition: 74%
[8]
  inhibition: 60%
[13]
  Papp A→B at 1 h, 5 µM: 19.6 ×10⁻⁶ cm/s
[14]
  solubility: > 400 µM
[16]
  IC50: > 1000 nM
[9]
  inhibition: 80%
[10]
  inhibition: 100%
[11]
  inhibition: 89%

## Fc1ccc(-c2nn3c(c2-c2ccnc(NC4CCOCC4)n2)COCC3)cc1
[23]
  IC50: 45 nM

## Fc1ccc(-c2nn3c(c2-c2ccnc4[nH]ccc24)COCC3)nc1
[1]
  inhibition: 59%
[2]
  inhibition: 44%
[4]
  IC50: 4000 nM
[6]
  inhibition: 10%
[7]
  inhibition: 0%
[8]
  inhibition: 46%
[9]
  inhibition: 5%
[10]
  inhibition: 9%
[11]
  inhibition: 6%

## Cc1cnc2[nH]ccc2c1-c1cn(C)nc1-c1ccc(F)cn1
[1]
  inhibition: 8%
[2]
  inhibition: 19%
[4]
  IC50: 3000 nM
[6]
  inhibition: 0%
[7]
  inhibition: 0%
[8]
  inhibition: 54%
[9]
  inhibition: 14%
[10]
  inhibition: 30%
[11]
  inhibition: 21%

## Cn1cc(-c2ccnc3[nH]c(C(F)(F)F)cc23)c(-c2ccc(F)cn2)n1
[1]
  inhibition: 69%
[2]
  inhibition: 75%
[4]
  IC50: 200 nM
[6]
  inhibition: 63%
[7]
  inhibition: 83%
[8]
  inhibition: 85%
[9]
  inhibition: 54%
[10]
  inhibition: 87%
[11]
  inhibition: 68%
[23]
  IC50: 250 nM
